Data: the supplement of paper PMC8671470

Test system: myeloid leukemia patient primary cells Pat.9
Assay: cell viability (% survival relative to DMSO control); higher = less cytotoxic
Conditions: 1 nM; 72 h
Procedure, shortened: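 Where an area under the curve appears, it was computed with the drc and PharmacoGx R packages from log-logistic fits. Those fits used four parameters. The underlying viability data came from CellTiter-Glo after 72 h, normalised to DMSO and 10 μM proteasome-inhibitor wells, with thawed, Ficoll-purified AML or CML patient mononuclear cells at 10,000 cells/well in RPMI 1640 with 10% FBS on 384-well plates pre-printed with 70 compounds at five tenfold concentrations (1–10,000 nM) in duplicate.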

**Q.** With `N#CC(C#N)=NNc1ccc(OC(F)(F)F)cc1` [FCCP] as the molecule, how does the cell viability read?
**A.** Its cell viability is 54%.

**Q.** `O=C1c2cc([N+](=O)[O-])ccc2-n2c1nc1ccccc1c2=O` [GNF-Pf-3777] was tested. Which cell viability did it give?
**A.** The cell viability was 82.9%.

**Q.** For `O=C(O)Cn1nnc(-c2cc(N3CCC(Oc4cc(F)ccc4Br)CC3)no2)n1` [MK-8245], which cell viability is on record?
**A.** Its cell viability is 82.3%.

**Q.** Which cell viability does the source give for `C=C(C=NNC(=N)N)NNC(=N)N` [Mitoguazone] here?
**A.** The cell viability was 75.2%.

**Q.** `COc1cc(/C=C/C(=O)N2CCC=CC2=O)cc(OC)c1OC` [Piperlongumine] was tested. Which cell viability did it give?
**A.** Its cell viability is 9.44%.

**Q.** How did the cell viability turn out when `C=C(C)[C@H]1Cc2c(ccc3c2O[C@@H]2COc4cc(OC)c(OC)cc4[C@@H]2C3=O)O1` [Rotenone] was run?
**A.** Its cell viability is 1.24%.

**Q.** For `Oc1ccc(Nc2nc(-c3ccc(Cl)cc3)cs2)cc1` [SKI II], which cell viability is on record?
**A.** The cell viability was 20.1%.

**Q.** For `CC[C@@]1(O)C(=O)OCc2c1cc1n(c2=O)Cc2cc3c(CN(C)C)c(O)ccc3nc2-1` [Topotecan], which cell viability is on record?
**A.** Its cell viability is 78.4%.

Same assay, conditions: 10 nM; 72 h

**Q.** Which cell viability does the source give for `O=C(C1CC1)N1CC[C@@H](C=C2NNC(=O)N2c2ccc(-c3ccc4occc4c3)cc2)C1` here?
**A.** The cell viability was 80.9%.

**Q.** Which cell viability does the source give for `C[C@H](NC(=O)c1sccc1OCc1ccc(Cl)cc1)c1ccccc1` here?
**A.** Its cell viability is 59.2%.

**Q.** `O=C(O)C1=CC(=C(c2ccc(O)c(C(=O)O)c2)c2ccc(O)c(C(=O)O)c2)C=CC1=O` [Aurintricarboxylic acid] was tested. Which cell viability did it give?
**A.** The cell viability was 99%.

**Q.** With `COC(=O)[C@]12CCC(C)(C)C[C@H]1[C@H]1C(=O)C=C3[C@@]4(C)C=C(C#N)C(=O)C(C)(C)[C@@H]4CC[C@@]3(C)[C@]1(C)CC2` [Bardoxolone methyl] as the molecule, how does the cell viability read?
**A.** The cell viability was 25.4%.

**Q.** How did the cell viability turn out when `Cc1c(-c2ccc(-c3ccccc3F)cc2)nc2ccc(F)cc2c1C(=O)O` [Brequinar] was run?
**A.** The cell viability was 59.6%.

**Q.** How did the cell viability turn out when `O=C1O/C(=C/Br)CCC1c1cccc2ccccc12` (centres undefined) [Bromoenol Lactone] was run?
**A.** The cell viability was 39.3%.

**Q.** For `Nc1nc(Cl)nc2c1ncn2[C@H]1C[C@H](O)[C@@H](CO)O1` [Cladribine], which cell viability is on record?
**A.** The cell viability was 34%.

**Q.** How did the cell viability turn out when `N#CC(C#N)=NNc1ccc(OC(F)(F)F)cc1` [FCCP] was run?
**A.** The cell viability was 63.1%.

**Q.** With `O=C1c2cc([N+](=O)[O-])ccc2-n2c1nc1ccccc1c2=O` [GNF-Pf-3777] as the molecule, how does the cell viability read?
**A.** The cell viability was 68.9%.

**Q.** With `O=C(O)Cn1nnc(-c2cc(N3CCC(Oc4cc(F)ccc4Br)CC3)no2)n1` [MK-8245] as the molecule, how does the cell viability read?
**A.** Its cell viability is 69.4%.

**Q.** For `C=C(C=NNC(=N)N)NNC(=N)N` [Mitoguazone], which cell viability is on record?
**A.** Its cell viability is 50.8%.

**Q.** How did the cell viability turn out when `COc1cc(/C=C/C(=O)N2CCC=CC2=O)cc(OC)c1OC` [Piperlongumine] was run?
**A.** The cell viability was 76.7%.

**Q.** `C=C(C)[C@H]1Cc2c(ccc3c2O[C@@H]2COc4cc(OC)c(OC)cc4[C@@H]2C3=O)O1` [Rotenone] was tested. Which cell viability did it give?
**A.** Its cell viability is 50.1%.

**Q.** Which cell viability does the source give for `Oc1ccc(Nc2nc(-c3ccc(Cl)cc3)cs2)cc1` [SKI II] here?
**A.** Its cell viability is 79.9%.

**Q.** For `CC[C@@]1(O)C(=O)OCc2c1cc1n(c2=O)Cc2cc3c(CN(C)C)c(O)ccc3nc2-1` [Topotecan], which cell viability is on record?
**A.** The cell viability was 58.3%.

Same assay, conditions: 100 nM; 72 h

**Q.** Which cell viability does the source give for `O=C(C1CC1)N1CC[C@@H](C=C2NNC(=O)N2c2ccc(-c3ccc4occc4c3)cc2)C1` here?
**A.** The cell viability was 87.2%.

**Q.** For `C[C@H](NC(=O)c1sccc1OCc1ccc(Cl)cc1)c1ccccc1`, which cell viability is on record?
**A.** The cell viability was 79%.

**Q.** For `O=C(O)C1=CC(=C(c2ccc(O)c(C(=O)O)c2)c2ccc(O)c(C(=O)O)c2)C=CC1=O` [Aurintricarboxylic acid], which cell viability is on record?
**A.** The cell viability was 88%.

**Q.** How did the cell viability turn out when `COC(=O)[C@]12CCC(C)(C)C[C@H]1[C@H]1C(=O)C=C3[C@@]4(C)C=C(C#N)C(=O)C(C)(C)[C@@H]4CC[C@@]3(C)[C@]1(C)CC2` [Bardoxolone methyl] was run?
**A.** The cell viability was 0.492%.

**Q.** For `Cc1c(-c2ccc(-c3ccccc3F)cc2)nc2ccc(F)cc2c1C(=O)O` [Brequinar], which cell viability is on record?
**A.** Its cell viability is 36.9%.

**Q.** With `O=C1O/C(=C/Br)CCC1c1cccc2ccccc12` (centres undefined) [Bromoenol Lactone] as the molecule, how does the cell viability read?
**A.** The cell viability was 46.4%.

**Q.** Which cell viability does the source give for `Nc1nc(Cl)nc2c1ncn2[C@H]1C[C@H](O)[C@@H](CO)O1` [Cladribine] here?
**A.** The cell viability was less than 0%.

**Q.** With `N#CC(C#N)=NNc1ccc(OC(F)(F)F)cc1` [FCCP] as the molecule, how does the cell viability read?
**A.** The cell viability was 82.9%.

**Q.** How did the cell viability turn out when `O=C1c2cc([N+](=O)[O-])ccc2-n2c1nc1ccccc1c2=O` [GNF-Pf-3777] was run?
**A.** The cell viability was 60.9%.

**Q.** With `O=C(O)Cn1nnc(-c2cc(N3CCC(Oc4cc(F)ccc4Br)CC3)no2)n1` [MK-8245] as the molecule, how does the cell viability read?
**A.** Its cell viability is 79.2%.

**Q.** Which cell viability does the source give for `C=C(C=NNC(=N)N)NNC(=N)N` [Mitoguazone] here?
**A.** Its cell viability is 1.24%.

**Q.** Which cell viability does the source give for `COc1cc(/C=C/C(=O)N2CCC=CC2=O)cc(OC)c1OC` [Piperlongumine] here?
**A.** Its cell viability is 31.8%.

**Q.** For `C=C(C)[C@H]1Cc2c(ccc3c2O[C@@H]2COc4cc(OC)c(OC)cc4[C@@H]2C3=O)O1` [Rotenone], which cell viability is on record?
**A.** Its cell viability is 10.8%.

**Q.** Which cell viability does the source give for `Oc1ccc(Nc2nc(-c3ccc(Cl)cc3)cs2)cc1` [SKI II] here?
**A.** Its cell viability is 67.9%.

**Q.** `CC[C@@]1(O)C(=O)OCc2c1cc1n(c2=O)Cc2cc3c(CN(C)C)c(O)ccc3nc2-1` [Topotecan] was tested. Which cell viability did it give?
**A.** Its cell viability is 31.8%.

Same assay, conditions: 1000 nM; 72 h

**Q.** `O=C(C1CC1)N1CC[C@@H](C=C2NNC(=O)N2c2ccc(-c3ccc4occc4c3)cc2)C1` was tested. Which cell viability did it give?
**A.** The cell viability was 45.5%.

**Q.** For `C[C@H](NC(=O)c1sccc1OCc1ccc(Cl)cc1)c1ccccc1`, which cell viability is on record?
**A.** Its cell viability is 59.2%.

**Q.** For `O=C(O)C1=CC(=C(c2ccc(O)c(C(=O)O)c2)c2ccc(O)c(C(=O)O)c2)C=CC1=O` [Aurintricarboxylic acid], which cell viability is on record?
**A.** The cell viability was greater than 100%.

**Q.** Which cell viability does the source give for `COC(=O)[C@]12CCC(C)(C)C[C@H]1[C@H]1C(=O)C=C3[C@@]4(C)C=C(C#N)C(=O)C(C)(C)[C@@H]4CC[C@@]3(C)[C@]1(C)CC2` [Bardoxolone methyl] here?
**A.** The cell viability was 0.773%.

**Q.** `Cc1c(-c2ccc(-c3ccccc3F)cc2)nc2ccc(F)cc2c1C(=O)O` [Brequinar] was tested. Which cell viability did it give?
**A.** The cell viability was 50%.

**Q.** How did the cell viability turn out when `O=C1O/C(=C/Br)CCC1c1cccc2ccccc12` (centres undefined) [Bromoenol Lactone] was run?
**A.** The cell viability was 5.6%.

**Q.** How did the cell viability turn out when `Nc1nc(Cl)nc2c1ncn2[C@H]1C[C@H](O)[C@@H](CO)O1` [Cladribine] was run?
**A.** The cell viability was 1.24%.

**Q.** Which cell viability does the source give for `N#CC(C#N)=NNc1ccc(OC(F)(F)F)cc1` [FCCP] here?
**A.** The cell viability was 3.45%.

**Q.** `O=C1c2cc([N+](=O)[O-])ccc2-n2c1nc1ccccc1c2=O` [GNF-Pf-3777] was tested. Which cell viability did it give?
**A.** The cell viability was 63.4%.

**Q.** `O=C(O)Cn1nnc(-c2cc(N3CCC(Oc4cc(F)ccc4Br)CC3)no2)n1` [MK-8245] was tested. Which cell viability did it give?
**A.** Its cell viability is 85.3%.

**Q.** How did the cell viability turn out when `C=C(C=NNC(=N)N)NNC(=N)N` [Mitoguazone] was run?
**A.** Its cell viability is 1.6%.

**Q.** `COc1cc(/C=C/C(=O)N2CCC=CC2=O)cc(OC)c1OC` [Piperlongumine] was tested. Which cell viability did it give?
**A.** Its cell viability is 39%.

**Q.** For `C=C(C)[C@H]1Cc2c(ccc3c2O[C@@H]2COc4cc(OC)c(OC)cc4[C@@H]2C3=O)O1` [Rotenone], which cell viability is on record?
**A.** Its cell viability is 1.6%.

**Q.** `Oc1ccc(Nc2nc(-c3ccc(Cl)cc3)cs2)cc1` [SKI II] was tested. Which cell viability did it give?
**A.** Its cell viability is 24.7%.

**Q.** How did the cell viability turn out when `CC[C@@]1(O)C(=O)OCc2c1cc1n(c2=O)Cc2cc3c(CN(C)C)c(O)ccc3nc2-1` [Topotecan] was run?
**A.** Its cell viability is 58.8%.

Same assay, conditions: 10000 nM; 72 h

**Q.** `O=C(C1CC1)N1CC[C@@H](C=C2NNC(=O)N2c2ccc(-c3ccc4occc4c3)cc2)C1` was tested. Which cell viability did it give?
**A.** Its cell viability is 33.2%.

**Q.** `C[C@H](NC(=O)c1sccc1OCc1ccc(Cl)cc1)c1ccccc1` was tested. Which cell viability did it give?
**A.** The cell viability was 1.24%.

**Q.** For `O=C(O)C1=CC(=C(c2ccc(O)c(C(=O)O)c2)c2ccc(O)c(C(=O)O)c2)C=CC1=O` [Aurintricarboxylic acid], which cell viability is on record?
**A.** The cell viability was 53.2%.

**Q.** With `COC(=O)[C@]12CCC(C)(C)C[C@H]1[C@H]1C(=O)C=C3[C@@]4(C)C=C(C#N)C(=O)C(C)(C)[C@@H]4CC[C@@]3(C)[C@]1(C)CC2` [Bardoxolone methyl] as the molecule, how does the cell viability read?
**A.** The cell viability was 3.59%.

**Q.** `Cc1c(-c2ccc(-c3ccccc3F)cc2)nc2ccc(F)cc2c1C(=O)O` [Brequinar] was tested. Which cell viability did it give?
**A.** Its cell viability is 10.6%.

**Q.** For `O=C1O/C(=C/Br)CCC1c1cccc2ccccc12` (centres undefined) [Bromoenol Lactone], which cell viability is on record?
**A.** The cell viability was 0.492%.
